US10670605B2, “Cysteine reactive probes and uses thereof” (The Scripps Research Institute, priority 2015, dated 2020)
Values belong to the compound of their own block, whether it stands above or below them.

What was measured:
Assay in all cases: Competitive isoTOP-ABPP in situ (fragment-treated cells)
Format in all cases: cell-based
[1] = molecular target: cysteines in MDA-MB-231 and Ramos cells (Homo sapiens, UniProt P27708); settings: 200 μM, insitu
[2] = molecular target: T1, cysteines in MDA-MB-231 and Ramos cells (Homo sapiens, UniProt Q2NL82)
T1 sequence (Q2NL82 1-804): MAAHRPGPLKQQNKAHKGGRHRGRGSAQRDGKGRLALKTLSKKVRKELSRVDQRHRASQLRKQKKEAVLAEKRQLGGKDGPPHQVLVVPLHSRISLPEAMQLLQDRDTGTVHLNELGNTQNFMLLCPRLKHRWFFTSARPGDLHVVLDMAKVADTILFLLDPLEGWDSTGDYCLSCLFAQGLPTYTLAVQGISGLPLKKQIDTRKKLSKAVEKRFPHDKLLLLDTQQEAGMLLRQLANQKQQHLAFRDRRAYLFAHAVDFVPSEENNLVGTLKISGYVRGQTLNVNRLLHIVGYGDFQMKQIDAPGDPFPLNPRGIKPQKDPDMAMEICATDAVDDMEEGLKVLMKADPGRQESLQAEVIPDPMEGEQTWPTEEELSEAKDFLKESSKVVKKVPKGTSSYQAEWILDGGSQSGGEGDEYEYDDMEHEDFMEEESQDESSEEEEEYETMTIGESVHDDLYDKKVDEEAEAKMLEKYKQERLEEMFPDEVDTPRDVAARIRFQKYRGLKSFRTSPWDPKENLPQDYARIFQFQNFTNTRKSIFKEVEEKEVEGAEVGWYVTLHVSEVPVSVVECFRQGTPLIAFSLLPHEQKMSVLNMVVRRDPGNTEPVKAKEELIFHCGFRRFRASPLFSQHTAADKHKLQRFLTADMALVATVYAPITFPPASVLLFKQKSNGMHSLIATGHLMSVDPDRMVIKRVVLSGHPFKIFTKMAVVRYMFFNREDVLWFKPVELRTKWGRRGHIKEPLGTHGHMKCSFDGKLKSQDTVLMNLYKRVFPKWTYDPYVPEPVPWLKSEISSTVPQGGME

[3] = molecular target: cysteines in MDA-MB-231 and Ramos cells (Homo sapiens, UniProt Q13630); settings: 200 μM, insitu
Sequence of cysteines in MDA-MB-231 and Ramos cells (Homo sapiens, UniProt Q13630) (Q13630 whole entry): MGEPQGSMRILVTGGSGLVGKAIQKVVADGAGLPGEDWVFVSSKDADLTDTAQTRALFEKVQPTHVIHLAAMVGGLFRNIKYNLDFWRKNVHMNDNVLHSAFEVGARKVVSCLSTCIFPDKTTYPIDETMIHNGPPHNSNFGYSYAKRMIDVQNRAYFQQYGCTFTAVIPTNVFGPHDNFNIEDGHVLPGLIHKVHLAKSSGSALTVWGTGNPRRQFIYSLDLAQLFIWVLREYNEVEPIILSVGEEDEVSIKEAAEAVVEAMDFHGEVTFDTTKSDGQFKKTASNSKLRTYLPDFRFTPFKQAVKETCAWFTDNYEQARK

[4] = molecular target: cysteines in MDA-MB-231 and Ramos cells (Homo sapiens, UniProt P22061)
[5] = molecular target: T2, cysteines in MDA-MB-231 and Ramos cells (Homo sapiens, UniProt O75439)
T2 sequence (O75439 44-489): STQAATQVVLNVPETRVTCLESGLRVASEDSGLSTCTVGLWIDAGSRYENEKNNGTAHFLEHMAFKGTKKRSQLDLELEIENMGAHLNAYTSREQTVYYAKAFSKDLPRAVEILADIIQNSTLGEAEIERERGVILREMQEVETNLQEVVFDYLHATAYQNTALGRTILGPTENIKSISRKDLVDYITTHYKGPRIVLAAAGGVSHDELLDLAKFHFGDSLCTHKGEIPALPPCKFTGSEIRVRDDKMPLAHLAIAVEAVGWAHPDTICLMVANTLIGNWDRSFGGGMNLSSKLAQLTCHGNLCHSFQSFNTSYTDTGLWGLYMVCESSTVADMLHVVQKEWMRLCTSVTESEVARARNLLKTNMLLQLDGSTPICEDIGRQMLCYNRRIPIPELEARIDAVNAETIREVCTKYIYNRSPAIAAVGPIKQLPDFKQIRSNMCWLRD

[6] = molecular target: cysteines in MDA-MB-231 and Ramos cells (Homo sapiens, UniProt Q14980); settings: 200 μM, insitu, 231
Sequence of cysteines in MDA-MB-231 and Ramos cells (Homo sapiens, UniProt Q14980) (Q14980 whole entry): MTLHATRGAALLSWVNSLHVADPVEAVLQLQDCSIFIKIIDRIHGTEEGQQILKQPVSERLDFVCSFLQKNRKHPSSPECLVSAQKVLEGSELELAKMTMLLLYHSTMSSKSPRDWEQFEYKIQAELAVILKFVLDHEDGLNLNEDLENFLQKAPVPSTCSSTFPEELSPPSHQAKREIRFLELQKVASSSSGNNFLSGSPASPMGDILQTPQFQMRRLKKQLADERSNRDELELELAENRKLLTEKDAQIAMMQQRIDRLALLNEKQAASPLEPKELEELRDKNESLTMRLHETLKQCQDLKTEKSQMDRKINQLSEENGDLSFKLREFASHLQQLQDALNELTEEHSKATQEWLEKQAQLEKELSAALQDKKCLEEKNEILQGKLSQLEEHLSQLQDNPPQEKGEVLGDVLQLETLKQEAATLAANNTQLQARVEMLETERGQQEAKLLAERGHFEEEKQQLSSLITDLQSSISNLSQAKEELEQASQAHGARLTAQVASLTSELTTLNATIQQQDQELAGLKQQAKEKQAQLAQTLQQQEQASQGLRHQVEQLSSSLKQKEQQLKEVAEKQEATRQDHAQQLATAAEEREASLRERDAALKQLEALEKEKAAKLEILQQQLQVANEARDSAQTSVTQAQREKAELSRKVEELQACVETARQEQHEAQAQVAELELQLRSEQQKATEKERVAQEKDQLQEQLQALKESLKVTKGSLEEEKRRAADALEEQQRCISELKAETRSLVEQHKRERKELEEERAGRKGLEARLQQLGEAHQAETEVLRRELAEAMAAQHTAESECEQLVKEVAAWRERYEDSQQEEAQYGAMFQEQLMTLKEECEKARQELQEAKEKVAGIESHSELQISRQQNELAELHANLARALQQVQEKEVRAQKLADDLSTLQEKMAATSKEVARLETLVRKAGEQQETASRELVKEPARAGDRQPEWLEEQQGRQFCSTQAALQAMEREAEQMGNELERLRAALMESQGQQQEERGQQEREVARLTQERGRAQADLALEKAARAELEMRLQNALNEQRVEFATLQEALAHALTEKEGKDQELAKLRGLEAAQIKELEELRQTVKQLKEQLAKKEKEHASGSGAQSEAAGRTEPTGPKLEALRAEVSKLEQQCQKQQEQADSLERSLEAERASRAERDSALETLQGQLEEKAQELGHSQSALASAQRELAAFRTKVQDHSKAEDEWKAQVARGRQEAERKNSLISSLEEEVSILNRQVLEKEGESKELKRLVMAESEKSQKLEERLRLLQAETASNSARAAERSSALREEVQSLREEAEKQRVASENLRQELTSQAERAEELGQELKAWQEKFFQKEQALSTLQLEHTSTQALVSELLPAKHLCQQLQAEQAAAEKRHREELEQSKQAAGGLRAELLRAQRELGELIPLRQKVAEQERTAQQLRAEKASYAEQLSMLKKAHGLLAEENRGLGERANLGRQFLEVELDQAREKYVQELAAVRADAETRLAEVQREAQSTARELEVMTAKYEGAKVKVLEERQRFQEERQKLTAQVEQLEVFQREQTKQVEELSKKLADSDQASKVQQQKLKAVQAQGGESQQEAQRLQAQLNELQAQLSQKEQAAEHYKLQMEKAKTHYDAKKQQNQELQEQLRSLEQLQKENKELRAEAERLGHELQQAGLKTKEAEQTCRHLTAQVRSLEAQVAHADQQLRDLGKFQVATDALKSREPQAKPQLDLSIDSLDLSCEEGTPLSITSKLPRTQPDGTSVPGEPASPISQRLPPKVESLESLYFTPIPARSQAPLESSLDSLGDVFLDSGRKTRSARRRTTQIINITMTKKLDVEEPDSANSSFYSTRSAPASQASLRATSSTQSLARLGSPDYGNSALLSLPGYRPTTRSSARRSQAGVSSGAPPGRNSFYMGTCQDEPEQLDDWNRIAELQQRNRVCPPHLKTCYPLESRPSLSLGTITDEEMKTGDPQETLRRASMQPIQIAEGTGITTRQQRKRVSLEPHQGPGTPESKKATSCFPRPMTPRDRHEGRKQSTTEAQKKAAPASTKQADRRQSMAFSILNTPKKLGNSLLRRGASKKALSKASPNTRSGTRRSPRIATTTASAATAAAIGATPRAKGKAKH

[7] = molecular target: cysteines in MDA-MB-231 and Ramos cells (Homo sapiens, UniProt P49189); settings: 200 μM, insitu
Sequence of cysteines in MDA-MB-231 and Ramos cells (Homo sapiens, UniProt P49189) (P49189 whole entry): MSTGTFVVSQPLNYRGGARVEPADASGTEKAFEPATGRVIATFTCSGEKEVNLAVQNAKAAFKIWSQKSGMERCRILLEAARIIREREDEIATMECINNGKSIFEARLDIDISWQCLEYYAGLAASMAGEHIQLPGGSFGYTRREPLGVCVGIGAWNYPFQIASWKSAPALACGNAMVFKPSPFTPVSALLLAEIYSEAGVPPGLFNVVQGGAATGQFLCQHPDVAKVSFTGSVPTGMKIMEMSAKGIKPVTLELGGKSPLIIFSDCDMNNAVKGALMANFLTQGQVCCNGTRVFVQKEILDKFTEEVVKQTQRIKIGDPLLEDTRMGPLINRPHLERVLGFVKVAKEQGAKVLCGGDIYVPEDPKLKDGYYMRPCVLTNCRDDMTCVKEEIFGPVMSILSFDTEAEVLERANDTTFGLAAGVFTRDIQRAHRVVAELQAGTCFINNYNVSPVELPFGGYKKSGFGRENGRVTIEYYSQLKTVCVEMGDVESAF

[8] = molecular target: T3, cysteines in MDA-MB-231 and Ramos cells (Homo sapiens, UniProt P09110)
T3 sequence (P09110 27-424): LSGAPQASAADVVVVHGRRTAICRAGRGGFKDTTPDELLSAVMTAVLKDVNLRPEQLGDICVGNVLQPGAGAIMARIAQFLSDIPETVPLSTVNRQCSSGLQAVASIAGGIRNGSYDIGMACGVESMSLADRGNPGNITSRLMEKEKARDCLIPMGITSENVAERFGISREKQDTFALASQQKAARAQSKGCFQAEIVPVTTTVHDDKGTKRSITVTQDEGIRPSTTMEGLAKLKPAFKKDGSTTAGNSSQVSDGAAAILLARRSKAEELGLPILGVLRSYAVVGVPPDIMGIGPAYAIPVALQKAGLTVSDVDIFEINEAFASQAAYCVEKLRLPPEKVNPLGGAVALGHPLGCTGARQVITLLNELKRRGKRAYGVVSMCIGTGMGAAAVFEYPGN

[9] = molecular target: T4, cysteines in MDA-MB-231 and Ramos cells (Homo sapiens, UniProt Q8N1F7); settings: 200 μM, insitu
T4 sequence (Q8N1F7 1-819): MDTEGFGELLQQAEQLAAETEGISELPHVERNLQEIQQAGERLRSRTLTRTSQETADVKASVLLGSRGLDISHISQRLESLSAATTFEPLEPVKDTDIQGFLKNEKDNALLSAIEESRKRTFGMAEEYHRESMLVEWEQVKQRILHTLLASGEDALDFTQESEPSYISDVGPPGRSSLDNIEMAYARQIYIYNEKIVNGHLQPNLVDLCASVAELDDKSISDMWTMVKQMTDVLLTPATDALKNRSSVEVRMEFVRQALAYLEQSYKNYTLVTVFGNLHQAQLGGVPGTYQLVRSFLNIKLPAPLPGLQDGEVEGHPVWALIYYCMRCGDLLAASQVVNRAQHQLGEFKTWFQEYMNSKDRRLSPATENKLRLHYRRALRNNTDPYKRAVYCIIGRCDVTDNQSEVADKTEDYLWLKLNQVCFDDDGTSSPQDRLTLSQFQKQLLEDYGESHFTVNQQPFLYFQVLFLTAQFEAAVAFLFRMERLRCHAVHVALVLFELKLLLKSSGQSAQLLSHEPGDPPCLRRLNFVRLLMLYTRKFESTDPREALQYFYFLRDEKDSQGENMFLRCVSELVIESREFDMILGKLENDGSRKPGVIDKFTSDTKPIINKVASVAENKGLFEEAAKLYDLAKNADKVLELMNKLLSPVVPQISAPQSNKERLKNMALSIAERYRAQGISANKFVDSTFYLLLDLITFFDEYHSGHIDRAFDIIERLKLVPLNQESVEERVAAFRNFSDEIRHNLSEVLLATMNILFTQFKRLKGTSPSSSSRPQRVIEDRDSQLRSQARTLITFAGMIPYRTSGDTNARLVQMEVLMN

Sequence of cysteines in MDA-MB-231 and Ramos cells (Homo sapiens, UniProt P27708) (P27708 whole entry): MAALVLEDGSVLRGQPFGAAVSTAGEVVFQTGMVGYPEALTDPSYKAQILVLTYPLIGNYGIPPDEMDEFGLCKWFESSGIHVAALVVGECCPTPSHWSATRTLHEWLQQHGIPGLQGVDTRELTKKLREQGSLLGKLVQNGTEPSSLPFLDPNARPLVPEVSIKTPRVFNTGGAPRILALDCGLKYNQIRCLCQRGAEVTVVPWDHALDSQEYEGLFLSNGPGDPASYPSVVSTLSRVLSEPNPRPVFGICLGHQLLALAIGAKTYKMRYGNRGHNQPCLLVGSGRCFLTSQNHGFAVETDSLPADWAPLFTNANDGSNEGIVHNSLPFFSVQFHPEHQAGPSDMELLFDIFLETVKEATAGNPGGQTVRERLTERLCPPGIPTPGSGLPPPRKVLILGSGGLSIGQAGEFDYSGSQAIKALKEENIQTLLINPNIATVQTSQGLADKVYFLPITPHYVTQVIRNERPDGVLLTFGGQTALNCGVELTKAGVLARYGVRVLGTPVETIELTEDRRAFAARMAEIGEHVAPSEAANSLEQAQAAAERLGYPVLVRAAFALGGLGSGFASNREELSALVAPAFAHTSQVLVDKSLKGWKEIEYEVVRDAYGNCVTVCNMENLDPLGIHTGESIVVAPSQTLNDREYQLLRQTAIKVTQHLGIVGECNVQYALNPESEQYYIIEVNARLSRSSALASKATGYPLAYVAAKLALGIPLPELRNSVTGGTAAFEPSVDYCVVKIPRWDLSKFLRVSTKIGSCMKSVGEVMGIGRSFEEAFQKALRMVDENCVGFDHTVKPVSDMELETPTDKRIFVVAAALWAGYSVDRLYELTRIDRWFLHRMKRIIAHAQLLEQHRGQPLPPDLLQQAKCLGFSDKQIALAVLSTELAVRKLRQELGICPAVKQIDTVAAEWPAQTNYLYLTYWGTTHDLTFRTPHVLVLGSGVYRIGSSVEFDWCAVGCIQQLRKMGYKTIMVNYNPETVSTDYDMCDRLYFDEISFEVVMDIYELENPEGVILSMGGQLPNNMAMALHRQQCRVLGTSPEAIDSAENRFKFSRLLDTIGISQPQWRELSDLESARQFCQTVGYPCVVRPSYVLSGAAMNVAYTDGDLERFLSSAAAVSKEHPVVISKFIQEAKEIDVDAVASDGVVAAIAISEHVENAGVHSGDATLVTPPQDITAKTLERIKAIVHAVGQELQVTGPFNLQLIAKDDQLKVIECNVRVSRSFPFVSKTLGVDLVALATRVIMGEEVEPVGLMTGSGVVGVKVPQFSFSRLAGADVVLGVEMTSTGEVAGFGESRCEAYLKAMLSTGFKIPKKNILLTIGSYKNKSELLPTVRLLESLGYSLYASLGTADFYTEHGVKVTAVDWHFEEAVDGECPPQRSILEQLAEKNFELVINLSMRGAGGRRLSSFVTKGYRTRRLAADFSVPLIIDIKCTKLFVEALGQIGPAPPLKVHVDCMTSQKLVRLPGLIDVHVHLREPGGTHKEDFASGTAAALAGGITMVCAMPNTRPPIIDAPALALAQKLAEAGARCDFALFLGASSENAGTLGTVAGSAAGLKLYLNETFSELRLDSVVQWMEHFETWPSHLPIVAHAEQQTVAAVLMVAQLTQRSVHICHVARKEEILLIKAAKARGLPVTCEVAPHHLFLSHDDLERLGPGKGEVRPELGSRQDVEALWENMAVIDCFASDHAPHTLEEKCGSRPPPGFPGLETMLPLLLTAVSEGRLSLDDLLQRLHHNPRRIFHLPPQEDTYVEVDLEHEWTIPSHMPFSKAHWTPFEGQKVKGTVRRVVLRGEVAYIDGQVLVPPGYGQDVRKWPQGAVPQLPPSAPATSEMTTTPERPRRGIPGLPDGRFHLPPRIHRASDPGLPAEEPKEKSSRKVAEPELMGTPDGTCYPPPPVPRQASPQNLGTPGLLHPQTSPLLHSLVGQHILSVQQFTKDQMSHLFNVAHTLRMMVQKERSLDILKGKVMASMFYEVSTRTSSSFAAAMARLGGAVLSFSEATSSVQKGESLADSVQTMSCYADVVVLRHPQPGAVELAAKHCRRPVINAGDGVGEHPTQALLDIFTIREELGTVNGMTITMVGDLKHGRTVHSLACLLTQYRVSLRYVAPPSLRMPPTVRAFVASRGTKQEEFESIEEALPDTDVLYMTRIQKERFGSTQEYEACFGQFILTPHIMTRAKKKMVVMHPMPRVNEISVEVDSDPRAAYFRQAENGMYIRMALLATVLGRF

isoTOP-ABPP reactivity P27708_C73 CAD [1]; 231: 3.1
isoTOP-ABPP reactivity Q2NL82_C126 TSR1 ([2]; 200 μM, insitu, 231): 20.0
isoTOP-ABPP reactivity Q13630_C116 TSTA3 [3]; 231: 20.0
Compound: COc1ccc2c(c1)CCCN2C(=O)CCl [compound 2]

isoTOP-ABPP ratio P27708_C73 [1]; 231: 0.5
isoTOP-ABPP ratio Q2NL82_C126 ([2]; 200 μM, insitu, 231): 0.4
isoTOP-ABPP ratio P22061_ ([4]; 200 μM, insitu, 231): 2.2
isoTOP-ABPP ratio O75439_C265 ([5]; 200 μM, insitu, 231): 1.6
isoTOP-ABPP ratio Q14980_C961 [6]: 2.4
Compound: CC(C)CCOCCNC(=O)CCl [compound 27]

isoTOP-ABPP ratio P49189_C288 [7]; 231: 1.8
isoTOP-ABPP ratio, cysteine Q2NL82_C126 ([2]; 200 μM, insitu, 231): 20.0
isoTOP-ABPP ratio, cysteine P09110_C381 ([8]; 200 μM, insitu, 231): 4.5
isoTOP-ABPP ratio P22061_C102 ([4]; 200 μM, insitu, 231): 5.8
isoTOP-ABPP ratio Q8N1F7_C522 [9]; 231: 20.0
isoTOP-ABPP ratio, cysteine Q14980_C961 [6]: 20.0
Compound: O=C(CCl)NC(=O)NC12CC3CC(CC(C3)C1)C2 [compound 12]

isoTOP-ABPP ratio, cysteine P27708_C73 [1]; 231: 0.6
isoTOP-ABPP ratio P49189_C288 [7]; 231: 1.0
isoTOP-ABPP ratio, cysteine Q2NL82_C126 ([2]; 200 μM, insitu, 231): 1.5
isoTOP-ABPP ratio, cysteine Q13630_C116 [3]; 231: 0.8
isoTOP-ABPP ratio, cysteine Q14980_C961 [6]: 3.7
Compound: O=C(CCl)NC12CC3CC(CC(C3)C1)C2 [compound 21]

isoTOP-ABPP ratio P49189_C288 [7]; 231: 20.0
isoTOP-ABPP ratio, cysteine Q2NL82_C126 ([2]; 200 μM, insitu, 231): 4.9
isoTOP-ABPP ratio, cysteine Q13630_C116 [3]; 231: 20.0
isoTOP-ABPP ratio P22061_C102 ([4]; 200 μM, insitu, 231): 1.6
isoTOP-ABPP ratio, cysteine O75439_C265 ([5]; 200 μM, insitu, ramos): 2.1
Compound: O=C(CCl)N1CCN(S(=O)(=O)c2ccccc2F)CC1 [compound 10]

isoTOP-ABPP ratio P27708_C73 [1]; 231: 0.7
isoTOP-ABPP ratio P49189_C288 [7]; 231: 0.8
isoTOP-ABPP ratio Q2NL82_C126 ([2]; 200 μM, insitu, 231): 0.8
isoTOP-ABPP ratio P09110_C381 ([8]; 200 μM, insitu, 231): 0.9
isoTOP-ABPP ratio P22061_ ([4]; 200 μM, insitu, 231): 0.7
isoTOP-ABPP ratio O75439_C265 ([5]; 200 μM, insitu, 231): 1.3
isoTOP-ABPP ratio Q8N1F7_C522 [9]; 231: 0.8
Compound: Cc1ccc(C=C(C#N)C(=O)NCCN2CCOCC2)cc1 [compound 41]

isoTOP-ABPP ratio, cysteine P09110_C381 ([8]; 100 μM in situ 231): 0.8
isoTOP-ABPP ratio P22061_C102 ([4]; 100 μM in situ 231): 0.8
isoTOP-ABPP ratio, cysteine O75439_C265 ([5]; 100 μM in situ 231): 1.0
Compound: Cn1cc(S(=O)(=O)N2CCOCC2)cc1C(=O)NC(=O)CCl [compound 11]

isoTOP-ABPP ratio P09110_C381 ([8]; 200 μM, insitu, 231): 0.8
isoTOP-ABPP ratio O75439_C265 ([5]; 200 μM, insitu, 231): 0.6
Compound: COc1ccccc1OCCNC(=O)CCl [compound 28]

isoTOP-ABPP ratio P49189_C288 [7]; 231: 20.0
isoTOP-ABPP ratio Q2NL82_C126 ([2]; 200 μM, insitu, 231): 20.0
isoTOP-ABPP ratio P09110_C381 ([8]; 200 μM, insitu, 231): 1.2
isoTOP-ABPP ratio Q13630_C116 [3]; 231: 20.0
isoTOP-ABPP ratio Q8N1F7_C522 [9]; 231: 20.0
Compound: CC1CCc2ccccc2N1C(=O)CCl (stereo not shown) [compound 45]

isoTOP-ABPP ratio Q2NL82_C126 ([2]; 200 μM, insitu, 231): 1.9
Compound: O=C(CCl)Nc1cccc2ncccc12 [compound 51]

isoTOP-ABPP ratio P49189_C288 [7]; 231: 0.7
isoTOP-ABPP ratio Q2NL82_C126 ([2]; 200 μM, insitu, 231): 0.9
isoTOP-ABPP ratio P09110_C381 ([8]; 200 μM, insitu, 231): 0.8
isoTOP-ABPP ratio Q8N1F7_C522 [9]; 231: 1.7
isoTOP-ABPP ratio Q14980_C961 [6]: 2.6
Compound: C=CC(=O)Nc1cc(F)c(N2CCN(C(=O)OC(C)(C)C)CC2)c(F)c1 [compound 38]

isoTOP-ABPP reactivity P27708_C73 CAD [1]; 231: 20.0
isoTOP-ABPP reactivity P09110_C381 ACAA1 ([8]; 200 μM, insitu, 231): 0.8
isoTOP-ABPP reactivity P22061_C102 PCMT1 ([4]; 200 μM, insitu, 231): 4.5
isoTOP-ABPP reactivity Q8N1F7_0522 NUP93 [9]; 231: 20.0
Compound: COc1cc2c(cc1OC)CN(C(=O)CCl)CC2 [compound 8]

isoTOP-ABPP ratio P09110_C381 ([8]; 200 μM, insitu, 231): 0.7
isoTOP-ABPP ratio O75439_C265 ([5]; 200 μM, insitu, 231): 1.0
isoTOP-ABPP ratio O75439_C265 ([5]; 200 μM, insitu, ramos): 1.4
isoTOP-ABPP ratio Q8N1F7_C522 ([9]; ramos): 3.6
isoTOP-ABPP ratio Q14980_C961 [6]: 1.1
Compound: C=CC(=O)N(Cc1cccnc1)c1cc(C(F)(F)F)cc(C(F)(F)F)c1 [compound 31]

isoTOP-ABPP ratio, cysteine P27708_C73 ([1]; ramos): 5.0
isoTOP-ABPP ratio P49189_C288 ([7]; ramos): 12.0
isoTOP-ABPP ratio, cysteine Q13630_C116 ([3]; ramos): 1.2
isoTOP-ABPP ratio P22061_C102 ([4]; 200 μM, insitu, 231): 0.9
isoTOP-ABPP ratio Q8N1F7_C522 ([9]; ramos): 2.2
isoTOP-ABPP ratio, cysteine Q14980_C961 [6]: 2.2
Compound: O=C(CCl)NCCc1c[nH]c2ccccc12 [compound 13]

isoTOP-ABPP reactivity P49189_C288 ALDH9A1 [7]; 231: 20.0
isoTOP-ABPP reactivity Q13630_C116 TSTA3 [3]; 231: 1.9
isoTOP-ABPP reactivity P22061_C102 PCMT1 ([4]; 200 μM, insitu, 231): 1.2
Compound: O=C(CCl)N1CCC(Cc2ccccc2)CC1 [compound 9]

isoTOP-ABPP reactivity Q2NL82_C126 TSR1 ([2]; 100 μM in situ 231): 13.8
isoTOP-ABPP reactivity P22061_C102 PCMT1 ([4]; 100 μM in situ 231): 2.8
Compound: COc1ccc(C2CC(c3cccs3)=NN2C(=O)CCl)cc1 (stereo not shown) [compound 4]

isoTOP-ABPP ratio P27708_C73 ([1]; ramos): 1.8
isoTOP-ABPP ratio P22061_ ([4]; 200 μM, insitu, ramos): 1.2
isoTOP-ABPP ratio Q8N1F7_C522 ([9]; ramos): 1.7
Compound: O=C(CCl)N1CCN(CC(=O)N2CCOCC2)CC1 [compound 29]
